Data reported in US10239851B2 (priority 2014, dated 2019).
Where two headings read alike, the source gives them in different places. Marks after values point to notes of the source that are not given here.

Assays:
mice [1] = details: intravenous, equimolar amounts to propofol
[2] = In vitro dissociation of the water soluble taxane derivatives in blood plasma of rat; type: in vitro ADME, SD rats; details: 37° C.
Procedure: The obtained water soluble taxane derivatives were formulated as 0.2 mg/ml aqueous solutions. […] After 2 min, 5 min and 10 min of incubation, 0.2 ml of solutions were respectively taken from each of the samples, and added to acetonitrile (0.4 ml) cooled to −20° C. for precipitation of protein.

[3] = In vitro dissociation of the water soluble taxane derivatives in blood plasma of rabbit; type: in vitro ADME, New Zealand white rabbits; details: 37° C.
Procedure: The obtained water soluble taxane derivatives were formulated as 0.2 mg/ml aqueous solutions. […] After 5 min, 20 min and 60 min of incubation, 0.2 ml of solutions were respectively taken from each of the samples, and added to acetonitrile (0.4 ml) cooled to −20° C. for precipitation of protein.

[4] = rats, 5 mg/kg intravenous, 5 min after administration
Procedure: After 5 min of administration, 0.3 ml of venous blood was taken from the retrobulbar venous plexus of the rats, placed in heparinized tubes, and centrifuged at 11,000 rpm for 5 min. Blood plasma was separated, and the concentrations of the compounds in the blood plasma were determined by liquid chromatography-mass spectrometry.

KM mice = experiment: ED50 and LD50 test concerning anesthesia (sequential method) in mice; type: in vivo; details: for ED50: Mus musculus; for ED50 / Mouse ED50: anesthesia (loss of righting reflex); for ED50 / Mouse LD50 / Mouse ED50: caudal vein injection
Procedure: (§1) Test samples for the experiment on rabbit were formulated to have corresponding concentrations based on the results from a preliminary test. […] Rats and mice were administered with samples having a fixed concentration of drugs, while the volume of administration altered according to actual situation. The volume of administration to rabbits was 1 mL/kg body weight.
(§2) ED50 and LD50 values concerning anesthesia were determined using a sequential method. Healthy KM mice (male), SD rats (male) and New Zealand White rabbits were used for test. […] For rabbits, the compounds were administered by injection at a constant rate via ear vein for 30 seconds. Before the test, a preliminary test was conducted to determine an approximate dosage (volume of administration) that leads to anesthetization (or death) of animals, which was set as the middle dosage in the formal test. […] The disappearance of righting reflex or death was used as indicators of pharmacological efficacy or toxicity, respectively. The formal test began with the administration of the middle dosage. If animals were anesthetized, a lower dosage was administered; if animals were not anesthetized, a higher dosage was administered, until the cycle was repeated for 3-4 times. LD50 and ED50 were calculated by a sequential method aot425 software. TI was calculated according to the following equation: TI=LD50/ED50.

SD rats = experiment: ED50 and LD50 test concerning anesthesia (sequential method) in rats; type: in vivo; details: for ED50: Rattus norvegicus; for ED50 / Rat ED50: anesthesia (loss of righting reflex); for ED50 / Rat LD50 / Rat ED50: caudal vein injection
Procedure: as §1, §2

Kunming mice = experiment: Latent period and persistent period of anesthesia in mice; type: in vivo
mice [5] = details: cited from earlier work
[6] = system: New Zealand White rabbits; experiment: ED50 and LD50 test concerning anesthesia (sequential method) in rabbits; type: in vivo; details: for LD50 / ED50: injection via ear vein; for LD50: death; for ED50: disappearance of righting reflex
Procedure: as §1, §2

[7] = rabbit plasma, 37° C.
Procedure: 0.1 ml samples were taken from each of the solutions, added respectively to 1 ml of blood plasma of rabbit (taken from New Zealand white rabbits, treated according to conventional methods, anticoagulated with heparin) or 1 ml of blood plasma of rat (taken from live SD rats, treated according to conventional methods, anticoagulated with heparin), homogeneously mixed, and placed in a thermostatic water bath at 37° C. for incubation with time being recorded. Samples were taken at different time points after the experiment began, and 2 ml of acetonitrile was immediately added. The samples were shaken and centrifuged for 5 min (15,000 rpm), and the supernatant was then taken for HPLC analysis.

[8] = rat plasma, 37° C.
[9] = 3 mg/ml solution, confirmation test
[10] = 6 mg/ml solution, confirmation test
[11] = intravenous injection, dosage 2 * ED50, 3 mg/ml solution
[12] = propofol 25 mg/kg (2 * ED50), results from the present lab
[13] = dosage 1.25 * ED50 (propofol 15 mg/kg, fospropofol 85 mg/kg)
[14] = intravenous injection, dosage 2 * ED50, 6 mg/ml solution
[15] = formula F derivatives, sampling time 15 s
[16] = formula F derivatives, sampling time 30 s
[17] = fospropofol 136 mg/kg (2 * ED50)
[18] = formula G derivatives, sampling time 15 s

With `CC(C)c1cccc(C(C)C)c1OC(=O)[C@H](F)CCN(C)C.Cl` [J′] the “latent period for anesthesia compared to propofol” value (mice [1]) was “almost equal to those of propofol”, the “neurotoxic response after waking up” value (mice [1]) was “no neurotoxic response was observed” and the “persistent period for anesthesia compared to propofol” value (mice [1]) was “almost equal to those of propofol”.

Compound `CC(=O)O[C@H]1C(=O)[C@@]2(C)[C@H]([C@H](OC(=O)c3ccccc3)[C@]3(O)C[C@H](OC(=O)[C@H](OC(=O)[C@H](F)CCN(C)C)[C@@H](NC(=O)c4ccccc4)c4ccccc4)C(C)=C1C3(C)C)[C@]1(OC(C)=O)CO[C@@H]1C[C@@H]2O.Cl` [Compound 01, 2′-O-[4-(N,N-dimethyl)amino-2(R)-fluorobutyryl]paclitaxel Hydrochloride] has a dissociation percent ([2]; 2 min) of 63.5%, a dissociation percent ([2]; 5 min) of 96.8% and a dissociation percent ([2]; 10 min) of 100%. It also gave a dissociation percent ([3]; 5 min) of 76.5%, a dissociation percent ([3]; 20 min) of 98.3% and a dissociation percent ([3]; 60 min) of 100%. The “detection of the administered derivative in the blood plasma” value (“detection of the administered derivative” for short) [4] was “cannot be detected” and the “mean concentration of paclitaxel in the blood plasma” value [4] was 1789 ng/mL.

In the case of `CC(=O)O[C@H]1C(=O)[C@@]2(C)[C@H]([C@H](OC(=O)c3ccccc3)[C@]3(O)C[C@H](OC(=O)[C@H](OC(=O)C(F)CCN(C)C)[C@@H](NC(=O)c4ccccc4)c4ccccc4)C(C)=C1C3(C)C)[C@]1(OC(C)=O)CO[C@@H]1C[C@@H]2O.Cl` (stereo partly drawn) [Compound 03, 2′-O-[4-(N,N-dimethyl)amino-2(R,S)-fluorobutyryl]paclitaxel Hydrochloride], the dissociation percent ([2]; 2 min) is reported as 61.8%, the dissociation percent ([2]; 5 min) is reported as 93.1% and the dissociation percent ([2]; 10 min) is reported as 100%. It also gave a dissociation percent ([3]; 5 min) of 75.7%, a dissociation percent ([3]; 20 min) of 93.5% and a dissociation percent ([3]; 60 min) of 100%. The “detection of the administered derivative” value [4] was “cannot be detected”.

In the case of `CC(C)c1cccc(C(C)C)c1O` [Propofol, reference compound], the “TI Mouse” value (KM mice; [9]) is reported as 4.9, the “TI Mouse” value (KM mice; [10]) is reported as 3.8 and the ED50 (KM mice; [9]) is reported as 7.9 mg/kg. The ED50 (KM mice; [10]) was 11.3 mg/kg, the “Mouse LD50” value (KM mice; [9]) was 38.4 mg/kg and the “Mouse LD50” value (KM mice; [10]) was 42.9 mg/kg. For the same compound, the “TI Rat” value (SD rats; 3 mg/ml solution) was 5.5, the “TI Rat” value (SD rats; 6 mg/ml solution) was 4.9 and the ED50 (SD rats; 3 mg/ml solution) was 3.91 mg/kg. For the same compound, the ED50 (SD rats; 6 mg/ml solution) was 3.5 mg/kg, the “Rat LD50” value (SD rats; 3 mg/ml solution) was 21.5 mg/kg and the “Rat LD50” value (SD rats; 6 mg/ml solution) was 17.4 mg/kg. For the same compound, the “Latent Period” value (Kunming mice; [11]) was 8.4 ± 1.1 s, the “Persistent period” value (Kunming mice; [11]) was 324.8 ± 98.9 s and the “Latent Period” value (Kunming mice; [12]) was 8.4 ± 1.1 s. The Persistent period (Kunming mice; [12]) was 324.8 ± 98.9 s and the “Latent Period” value (mice [5]; [13]) was 10.7 s.

In the case of `CC(C)c1cccc(C(C)C)c1OC(=O)CCCN(C)C.Cl` [J′-1, reference compound], the “latent period for anesthesia compared to propofol” value (mice [1]) is reported as “much longer than those of propofol”, the “neurotoxic response after waking up” value (mice [1]) is reported as “transient hemiplegia after waking up” and the “persistent period for anesthesia compared to propofol” value (mice [1]) is reported as “much longer than those of propofol”.

`CC(=O)O[C@H]1C(=O)[C@@]2(C)[C@H]([C@H](OC(=O)c3ccccc3)[C@]3(O)C[C@H](OC(=O)[C@H](OC(=O)[C@@H](F)CCN(C)C)[C@@H](NC(=O)c4ccccc4)c4ccccc4)C(C)=C1C3(C)C)[C@]1(OC(C)=O)CO[C@@H]1C[C@@H]2O.Cl` [Compound 02, 2′-O-[4-(N,N-dimethyl)amino-2(S)-fluorobutyryl]paclitaxel hydrochloride] gave a dissociation percent ([2]; 2 min) of 59.8%, a dissociation percent ([2]; 5 min) of 95.6% and a dissociation percent ([2]; 10 min) of 100%. For the same compound, the dissociation percent ([3]; 5 min) was 68.2%, the dissociation percent ([3]; 20 min) was 97.5% and the dissociation percent ([3]; 60 min) was 100%. The “detection of the administered derivative” value [4] was “cannot be detected”.

With `CC(C)c1cccc(C(C)C)c1OC(=O)C(F)CC(=O)[O-].[Na+]` [Compound F7, propofol 3-carboxyl-2(R)-fluorobutyrate sodium salt] the “TI Mouse” value (KM mice; [9]) was 2.6, the “TI Mouse” value (KM mice; 3 mg/ml solution, first test) was 2.8* and the “TI Mouse” value (KM mice; [10]) was 3.1. For the same compound, the “TI Mouse” value (KM mice; 6 mg/ml solution, first test) was 2.4*, the “Mouse ED50” value (KM mice; [9]) was 19.2 mg/kg and the “Mouse ED50” value (KM mice; 3 mg/ml solution, first test) was 21.4 mg/kg. For the same compound, the “Mouse ED50” value (KM mice; [10]) was 18.1 mg/kg, the “Mouse ED50” value (KM mice; 6 mg/ml solution, first test) was 20.7 mg/kg and the “Mouse LD50” value (KM mice; [9]) was 51.6 mg/kg. The “Mouse LD50” value (KM mice; 3 mg/ml solution, first test) was 59.8 mg/kg, the “Mouse LD50” value (KM mice; [10]) was 56.6 mg/kg and the “Mouse LD50” value (KM mice; 6 mg/ml solution, first test) was 51.2 mg/kg. The “TI Rat” value (SD rats; 3 mg/ml solution) was 3.0, the “TI Rat” value (SD rats; 6 mg/ml solution) was 3.5 and the “Rat ED50” value (SD rats; 3 mg/ml solution) was 15.7 mg/kg. For the same compound, the “Rat ED50” value (SD rats; 6 mg/ml solution) was 12.5 mg/kg, the “Rat LD50” value (SD rats; 3 mg/ml solution) was 47.4 mg/kg and the “Rat LD50” value (SD rats; 6 mg/ml solution) was 44.4 mg/kg. The TI index ([6]; TI=LD50/ED50) was 2.6, the LD50 [6] was 36.7 (33.8-39.4) mg/kg and the ED50 [6] was 13.9 (11.1-16.8) mg/kg. The “Latent Period” value (Kunming mice; [11]) was 20.2 ± 0.6 s, the “Persistent period” value (Kunming mice; [11]) was 335.5 ± 218.1 s and the “Latent Period” value (Kunming mice; [14]) was 16.2 ± 2.2 s. The “Persistent period” value (Kunming mice; [14]) was 517 ± 231 s, the “Sampling time/dissociation percent (%) 15 s” value [7, 15] was 46.3% and the “Sampling time/dissociation percent (%) 30 s” value [7, 16] was 72.8%. For the same compound, the “Sampling time/dissociation percent (%) 5 s” value ([8]; formula F derivatives, sampling time 5 s) was 58.8%, the “Sampling time/dissociation percent (%) 15 s” value [8, 15] was 71.3% and the “Sampling time/dissociation percent (%) 30 s” value [8, 16] was 85.4%.

For `CC(C)c1cccc(C(C)C)c1OCOP(=O)(O)O` [Fospropofol], the “Latent Period” value (mice [5]; [13]) is given as 105 s, the “Latent Period” value (mice [5]; [17]) is given as 81 s and the Persistent period (mice [5]; [17]) is given as 804 s.

In the case of `CC(C)c1cccc(C(C)C)c1OC(=O)[C@@H](F)CCOP(=O)([O-])[O-].[Na+].[Na+]` [Compound G2, {1-[4-(2,6-diisopropylphenoxy)-4-oxo-3-(S)-3-fluoro-1-butyl]} phosphate monoester disodium salt], the “TI Mouse” value (KM mice; [9]) is reported as 3.0, the “TI Mouse” value (KM mice; 3 mg/ml solution, first test) is reported as 2.8* and the “TI Mouse” value (KM mice; [10]) is reported as 2.3. For the same compound, the “TI Mouse” value (KM mice; 6 mg/ml solution, first test) was 1.9*, the “Mouse ED50” value (KM mice; [9]) was 19.8 mg/kg and the “Mouse ED50” value (KM mice; 3 mg/ml solution, first test) was 23.7 mg/kg. The “Mouse ED50” value (KM mice; [10]) was 22.8 mg/kg, the “Mouse ED50” value (KM mice; 6 mg/ml solution, first test) was 25.6 mg/kg and the “Mouse LD50” value (KM mice; [9]) was 60.4 mg/kg. For the same compound, the “Mouse LD50” value (KM mice; 3 mg/ml solution, first test) was 65.7 mg/kg, the “Mouse LD50” value (KM mice; 6 mg/ml solution, first test) was 48.7 mg/kg and the “TI Rat” value (SD rats; 3 mg/ml solution) was 3.3. For the same compound, the “TI Rat” value (SD rats; 6 mg/ml solution) was 2.8, the “Rat ED50” value (SD rats; 6 mg/ml solution) was 21.1 mg/kg and the LD50 [6] was 38.7 (35.1-41.3) mg/kg. The ED50 [6] was 14.7 (12.6-19.1) mg/kg, the “Latent Period” value (Kunming mice; [11]) was 16.3 ± 0.8 s and the “Persistent period” value (Kunming mice; [11]) was 383.6 ± 242.1 s. For the same compound, the “Latent Period” value (Kunming mice; [14]) was 15.7 ± 2.3 s, the “Persistent period” value (Kunming mice; [14]) was 571 ± 173 s and the “Sampling time/dissociation percent (%) 15 S” value [7, 18] was 37.2%. The “Sampling time/dissociation percent (%) 30 S” value ([7]; formula G derivatives, sampling time 30 s) was 54.3%, the “Sampling time/dissociation percent (%) 5 S” value ([8]; formula G derivatives, sampling time 5 s) was 48.5% and the “Sampling time/dissociation percent (%) 15 S” value [8, 18] was 69.7%.
